What all share (format): cell-based, human
Test [1] concerns PBMC. Description: IFN-γ ELISpot assay, one-step detection. To be noted: for IFN-γ secreting cells after stimulation with the single stimulant (in words) / number of IFN-γ secreting cells detected: single stimulant alone; for IFN-γ secreting cells after stimulation with the single stimulant (in words): collective of 10 donors, LPS 1 EU/ml; for number of IFN-γ secreting cells detected: donor d270.

The test system of test [2] is PBMC. Briefly: IFN-γ ELISpot assay, two-step detection. The settings on record: for IL-12 concentration at which the number of IFN-γ secreting cells reached a maximum or plateau, IL-12 combined with the poly(I:C) variant: 10 μg/ml poly(I:C)-LMW, 1 μg/ml poly(I:C)-LMW/LyoVec, 1 μg/ml poly(I:C) (Enzo).
The test system of test [3] is PBMC. Briefly: IFN-γ ELISA, temporal course of IFN-γ release. The settings on record: for start of IFN-γ secretion after stimulation: working concentrations, 0 to 24 hours. The protocol: The detection of secreted IFN-γ was performed with the test kit “BD OptEIA Human IFN-γ ELISA Set” from Becton, Dickinson and Company according to the recommended assay performance in the technical data sheet.
To ensure that the activation of the IFN-γ production by the tested stimulants occurred in the typical stimulation period of 19 hours, the temporal course of the IFN-γ secretion induced by the stimulants was determined over a period of 24 hours. For this purpose, at each time point PBMC adjusted to 2×10^5 lymphocytes of different donors have been stimulated by the determined working concentrations of the stimulants poly(I:C) in combination with IL-12. KRN7000 and CEFTv for 0 to 24 hours.
In specifically stimulated cells the determination of the IFN-γ production was made to 11 time points in an interval of 2 or 4 hours. In unstimulated cells (negative control) three measurements in interval of 6 and 12 hours were made. Upon completion of each stimulation period the cells of the stimulation preparation were centrifuged and the supernatant stored at −20° C. After all stimulations were finished the IFN-γ concentration of the supernatants has been determined by IFN-γ ELISA as described in example 3.

The test system of test [4] is PBMC. Briefly: IFN-γ ELISpot assay (T-Track basic IFN-γ), PBMC of rheumatism patients. To be noted: patient P1, giant cell arthritis, 35 mg prednisolone equivalent daily; days 6 and 9.
Where [5] appears, read: donor d022, a-Gal-Cer variants titrated, 19 h.

Like-named read-outs stand apart in the source and are kept apart here.

Regarding `CCCCCCCCCCCCCCCCCCCCCCCCCC(=O)N[C@@H](CO[C@H]1O[C@H](CO)[C@H](O)[C@H](O)[C@H]1O)[C@H](O)[C@H](O)CCCCCCCCCCCCCC` [KRN7000 (from Enzo)], the “concentration at which the number of IFN-γ secreting cells reached a maximum, plateau or saturation region” value (“concentration … plateau or saturation region” for short) in test [1] (setting [5]) was 3 µg/mL. Also, the “IFN-γ secreting cells after stimulation (in words)” value in test [2] (donor d022, a-Gal-Cer variants) is given as “highest number”.

For the compound `CCCCCCCCCCCCCCCCCCCCCCCCCC(=O)N[C@@H](CO[C@H]1O[C@H](CO)[C@H](O)[C@H](O)[C@H]1O)[C@H](O)[C@H](O)CCCCCCCCCCCCCC` [KRN7000 (from Funakoshi)], the “concentration … plateau or saturation region” value in test [1] (setting [5]) is 1 µg/mL. For the same compound, in test [1] (donor d248, saturation region), the “more IFN-γ secreting cells activated compared with KRN7000 (from Enzo)” value is listed as 100%. Moreover, in test [2] (donor d242, a-Gal-Cer variants), the “IFN-γ secreting cells after stimulation (in words)” value is given as “highest number of IFN-γ secreting cells”. Besides, in test [3] (donor d022), the “time at which IFN-γ secretion reached a plateau or maximum” value is 12 h and the “start of IFN-γ secretion after stimulation” value came out at 8 h. Besides, in test [3] (donor d248), the “time at which IFN-γ secretion reached a plateau or maximum” value was determined as 18 h and the “start of IFN-γ secretion after stimulation” value stood at 2 h. For the same compound, the “IFN-γ release in PBMC, comparison of stimulants (in words)” value in test [3] (summary of donors) is on record as “weakest IFN-γ activating properties”.

As for `C[C@]12C=CC(=O)C=C1CC[C@@H]1[C@@H]2[C@@H](O)C[C@@]2(C)[C@H]1CC[C@]2(O)C(=O)CO` [prednisolone], in test [4], the “course of cocktail-reactive IFN-γ producing cells under treatment (in words)” value is given as “continuous drop in the numbers of cocktail-reactive IFN-g-producing cells”.

Regarding `NC(N)=O` [urea], the “IFN-γ secreting cells after stimulation with the single stimulant (in words)” value in test [1] is on record as “did not result in a IFN-γ secretion”. In addition, the “influence of urea on IFN-γ secreting cells induced by 1 μg p.p./ml CEFTv (in words)” value was “only improved by a 24 hours pre-incubation of CEFTv or directly added urea” in test [2] (donor d034); “deterioration of the stimulation at 100 mM and an improvement at 150 mM” in test [2] (donor d204, CEFTv pre-incubated for 48 hours in urea buffer); “no improvement” in test [2] (donor d204, without pre-incubation). Further, in test [2] (donor d204, CEFTv pre-incubated in urea buffer for 24 hours), the “urea concentration up to which the IFN-γ secreting cells increased” value was determined as 12.5 mM.

Regarding lipopolysaccharide [LPS], the “effect of combination of LPS with CEFTv (in words)” value in test [1] is reported as “synergistic induction of IFN-γ secreting NK cells”. Further, the “stimulation ability of CEFTv on simultaneous administration of LPS (in words)” value in test [1] (all three tested donors d204, d237, d254) was “did not result in an improvement”. Moreover, the “IFN-γ secreting cells after stimulation (in words)” value in test [1] (donor d204 (CMV-/EBV-seropositive), CEFTv / LPS matrix) is “high numbers of IFN-γ secreting cells”; in test [1] (donor d237 (CMV-seronegative/EBV-seropositive), CEFTv / LPS matrix), “high numbers of IFN-γ secreting cells”; in test [1] (donor d254 (CMV-/EBV-seropositive), CEFTv / LPS matrix), “low numbers of IFN-γ secreting cells”. The “LPS concentration at which stimulated PBMC reached a maximum” value in test [1] (donor d219, LPS in combination with CEFTv) was 1 EU/ml. In addition, the “LPS concentration as from which IFN-γ secreting cells increased” value in test [1] (donor d237, LPS in combination with CEFTv) is 3.2 EU/ml; in test [1] (donor d241, LPS in combination with CEFTv) it was 3.2 EU/ml. Further, the “LPS concentration as from which LPS alone induced a low secretion of IFN-γ” value in test [1] (donor d241) was 10 EU/ml; in test [1] (donor d254), 100 EU/ml. In addition, the “threshold for LPS at which even no IFN-γ secreting cells have been detected” value in test [1] (donors d204, d237, d254) amounted to 1 EU/ml. Moreover, the “IFN-γ secreting cells after stimulation with the single stimulant (in words)” value in test [1] is “barely detected”. Besides, the “number of IFN-γ secreting cells detected” value in test [1] was “high number of IFN-γ secreting cells”. Besides, in test [2] (LPS 1 EU/ml), the “own stimulating effect of LPS (in words)” value was “no own detectable stimulating effect”. In test [2] (summary of four donors), the “stimulation ability of CEFTv on addition of LPS (in words)” value is “could not have been improved”.

Consider “polyinosinic:polycytidylic acid [poly(I:C) (from Enzo)]”, for which the “change of the number of IFN-γ secreting cells by IL-12 in combination with the poly(I:C) variant (in words)” value in test [1] is “very low increase”. Besides, the “concentration … plateau or saturation region” value in test [1] is reported as “around 0.3 μg/ml”. The “IFN-γ secreting cells after stimulation (in words)” value in test [1] (donor d042, […]) is listed as “activation of IFN-γ secreting PBMC”; in test [2] (donor d098, poly(I:C) variants) it was “without reaching a plateau”. Further, in test [1] (donor d098, at highest concentration tested of 10 μg/ml), the “number of IFN-γ secreting cells exceeding the plateau of poly(I:C)-LMW” value is listed as “more than 100%”. The “ranking of activation of IFN-γ secreting cells in culture of human PBMC” value in test [1] (summary of one-step and two-step detection) is recorded as “highest activation of IFN-γ secreting cells”. Further, the figures for the “IL-12 concentration at which the number of IFN-γ secreting cells reached a maximum or plateau, IL-12 combined with the poly(I:C) variant” value in test [2] (donor d022), in test [2] (donor d098) and in test [2] (donor d248) were 0.01 µg/mL, 0.001 µg/mL and 0.01 µg/mL, respectively.

As to “polyinosinic:polycytidylic acid [poly(I:C)]”, the “number of IFN-γ secreting cells detected” value in test [1] is listed as “over 270 IFN-γ secreting cells”.

The values are drawn from patent US20220373538A1, “COMPOSITION FOR DETERMINATION OF CELL-MEDIATED IMMUNE RESPONSIVENESS” (Lophius Biosciences GmbH, priority 2015, published 2022).
